Laboratory results published in the Kinase Knowledgebase extract (Sharma et al. 2016).

These molecules were tested against ROCK2 (human) (UniProt O75116) (assay: Inhibition of ROCK2 Kinase Activity). Settings: not given.
Sequence of ROCK2 (human) (O75116 whole entry, looked up): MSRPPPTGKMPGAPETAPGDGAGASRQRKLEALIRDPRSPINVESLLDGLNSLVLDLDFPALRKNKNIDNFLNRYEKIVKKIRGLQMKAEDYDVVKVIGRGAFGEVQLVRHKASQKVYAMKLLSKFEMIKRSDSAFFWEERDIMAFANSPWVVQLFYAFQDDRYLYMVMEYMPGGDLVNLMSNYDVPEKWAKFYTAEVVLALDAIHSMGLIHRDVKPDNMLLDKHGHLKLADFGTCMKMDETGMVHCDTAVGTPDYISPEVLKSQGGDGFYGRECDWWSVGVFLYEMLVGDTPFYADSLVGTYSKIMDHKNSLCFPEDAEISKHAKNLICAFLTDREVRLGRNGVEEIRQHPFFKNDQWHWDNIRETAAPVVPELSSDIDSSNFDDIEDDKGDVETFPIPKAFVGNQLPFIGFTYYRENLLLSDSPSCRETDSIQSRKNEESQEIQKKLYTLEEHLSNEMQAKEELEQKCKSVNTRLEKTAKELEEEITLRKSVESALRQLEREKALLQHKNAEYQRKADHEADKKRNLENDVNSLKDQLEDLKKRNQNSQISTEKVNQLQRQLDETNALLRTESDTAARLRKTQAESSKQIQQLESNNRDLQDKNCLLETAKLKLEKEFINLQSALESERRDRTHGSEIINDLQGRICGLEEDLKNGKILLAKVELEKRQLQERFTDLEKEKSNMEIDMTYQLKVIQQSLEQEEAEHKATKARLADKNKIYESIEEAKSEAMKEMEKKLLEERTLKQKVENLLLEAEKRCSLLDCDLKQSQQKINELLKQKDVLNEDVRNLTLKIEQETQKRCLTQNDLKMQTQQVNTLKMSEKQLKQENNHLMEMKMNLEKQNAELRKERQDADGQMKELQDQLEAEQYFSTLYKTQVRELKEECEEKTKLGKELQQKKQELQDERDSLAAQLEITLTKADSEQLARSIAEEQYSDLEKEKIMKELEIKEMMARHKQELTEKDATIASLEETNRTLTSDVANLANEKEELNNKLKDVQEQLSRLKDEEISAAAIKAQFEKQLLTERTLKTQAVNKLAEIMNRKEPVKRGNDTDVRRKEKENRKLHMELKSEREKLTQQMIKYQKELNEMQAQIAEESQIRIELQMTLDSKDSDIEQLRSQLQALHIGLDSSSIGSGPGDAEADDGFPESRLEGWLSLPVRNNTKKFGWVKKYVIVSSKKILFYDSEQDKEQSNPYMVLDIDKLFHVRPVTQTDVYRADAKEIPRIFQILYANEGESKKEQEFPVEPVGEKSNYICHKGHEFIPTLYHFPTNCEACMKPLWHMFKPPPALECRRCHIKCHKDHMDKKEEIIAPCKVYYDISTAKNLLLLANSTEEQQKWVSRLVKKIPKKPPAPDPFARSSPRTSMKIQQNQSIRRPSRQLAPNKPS

Row | SMILES | IC50 [µM]
1 | C=CC[C@@H](N)[C@H]1CC[C@H](C(=O)Nc2ccncc2)CC1 | 1.9
2 | CCCCCCCCN(N)[C@H]1CC[C@H](C(=O)Nc2ccncc2)CC1 | 6.5

Same assay, conditions: concentration not given here

Row | SMILES | inhibition [%]
3 | NN(Cc1ccccc1)[C@H]1CC[C@@H](C(=O)Nc2ccncc2)CC1 | 32
4 | NN(Cc1ccccc1)[C@H]1CC[C@H](C(=O)Nc2ccncc2)CC1 | 61
5 | CCCN(N)[C@H]1CC[C@H](C(=O)Nc2ccncc2)CC1 | 45
6 | CC(C)N(N)[C@H]1CC[C@@H](C(=O)Nc2ccncc2)CC1 | 25
7 | C=CCC(N)[C@H]1CC[C@H](C(=O)Nc2ncnc3[nH]cnc23)CC1 (stereo partly drawn) | 0
8 | NN(CC(c1ccccc1)c1ccccc1)[C@H]1CC[C@H](C(=O)Nc2ccncc2)CC1 | 45
9 | CN(N)[C@H]1CC[C@H](C(=O)Nc2ccncc2)CC1 | 63
10 | NN(CC1CCCCC1)[C@H]1CC[C@H](C(=O)Nc2ccncc2)CC1 | 40
11 | C=CCC(NCc1ccccc1)[C@H]1CC[C@H](C(=O)Nc2ccncc2)CC1 (stereo partly drawn) | 44
12 | CC(C)N(N)[C@H]1CC[C@H](C(=O)Nc2ccncc2)CC1 | 45
13 | CN(N)[C@H]1CC[C@@H](C(=O)Nc2ccncc2)CC1 | 33
14 | CC(C)CCN(N)[C@H]1CC[C@H](C(=O)Nc2ccncc2)CC1 | 43
15 | C=CC[C@H](N)[C@H]1CC[C@H](C(=O)Nc2ccncc2)CC1 | 63
16 | NN(CCc1ccccc1)[C@H]1CC[C@H](C(=O)Nc2ccncc2)CC1 | 46
17 | CC(C)CCN(N)[C@H]1CC[C@@H](C(=O)Nc2ccncc2)CC1 | 13
18 | C=CC[C@@H](N)[C@H]1CC[C@H](C(=O)Nc2ccncc2)CC1 | 81
19 | C=CCC(NC)[C@H]1CC[C@H](C(=O)Nc2ccncc2)CC1 (stereo partly drawn) | 45
20 | CCCCCCCCN(N)[C@H]1CC[C@H](C(=O)Nc2ccncc2)CC1 | 53
21 | NN(Cc1ccc(OCc2ccccc2)cc1)[C@H]1CC[C@H](C(=O)Nc2ccncc2)CC1 | 59
22 | CCCN(N)[C@H]1CC[C@@H](C(=O)Nc2ccncc2)CC1 | 19
23 | NN(C/C=C/c1ccccc1)[C@H]1CC[C@H](C(=O)Nc2ccncc2)CC1 | 49
